Assay type in all cases: cell-based
Assay [1] deals with human breast cancer cell line (MCF-7). Description: SRB cytotoxicity assay, MCF-7. The settings on record: read-out: IC50 MCF-7. The procedure: (§1) For in vitro cytotoxicity screening, 1000 to 5000 cells were plated into each well of 96-well plates depending on growth rate, and exposed to different concentrations of a test compound for 96 h in three to five replicates. All the compounds were dissolved in dimethyl sulfoxide at 5 to 20 mM, and diluted to desired concentrations in complete culture medium. Cell numbers at the end of the drug treatment were measured by the SRB assay (Gududuru et al., “Synthesis and Biological Evaluation of Novel Cytotoxic Phospholipids for Prostate Cancer,” Bioorg. Med. Chem. Lett. 14:4919-4923 (2004); Rubinstein et at., “Comparison of in vitro Anticancer-Drug-Screening Data Generated with a Tetrazolium Assay Versus a Protein Assay Against a Diverse Panel of Human Tumor Cell Lines,” J. Naatl, Cancer Inst. 82:1113-1118 (1990), each of which is hereby incorporated by reference in its entirety). Briefly, the cells were fixed with 10% of trichloroacetic acid, stained with 0.4% SRB, and the absorbances at 540 nm was measured using a plate reader (DYNEX Technologies, Chantilly, Va.).
In vitro cytotoxicity assay was performed by the same sulforhodamine B (SRB) assay (described above). The compounds shown in Table 8 below where tested for activity against the breast cancer and ovarian cancer cell lines.
(§2) The chosen cell lines represent different basal levels of active AKT and LPL receptor expression (discussed later). Cells were exposed to a wide range of concentrations (0 to 100 μM) of the indicated compound for 96 h. Cell numbers at the end of treatment were measured using the sulforhodamine B (SRB) assay^5.
(§3) Cells were exposed to a wide range of concentrations (0 to 100 μM) of the particular compound for 96 h in 96 well plates. Cells were fixed with 10% trichloroacetic acid, washed five times with water. The plates were air dried overnight and fixed cells were stained with SRB solution. The cellular protein-bound SRB was measured at 540 nm using a plate reader. Cell numbers at the end of the treatment were measured.
For orientation: In SRB staining, fixed cells bind dye roughly in proportion to their protein.

Assay [2] relates to LNCaP human prostate cancer cells. Description: SRB cytotoxicity assay, LNCaP. The settings on record: read-out: IC50 LNCaP. The procedure:
as §1
(§4) The antiproliferative activity of all the synthesized compounds was evaluated against five human prostate cancer cell lines and in RH7777 cells (negative control) using the sulforhodamine B (SRB) assay (see description in Example 5 above).
as §2, §3
(§5) Cells were exposed to a wide range of concentrations (0 to 100 μM) of the particular compound for 96 h in 96-well plates. Cells were fixed with 10% trichloroacetic acid, washed five times with water. The plates were air dried overnight and fixed cells were stained with SRB solution. The cellular protein-bound SRB was measured at 540 nm using a plate reader. Cell numbers at the end of the treatment were calculated as a percentage of untreated control.

Assay [3] deals with DU-145 human prostate cancer cells. The assay is described as follows: SRB cytotoxicity assay, DU-145. The procedure: as §1, §4, §2, §3, §5
Assay [4] relates to PC-3 human prostate cancer cells. The assay is described as follows: SRB cytotoxicity assay, PC-3. As to conditions: read-out: IC50 PC-3. On the procedure: as §1, §4, §2, §3, §5
Assay [5] concerns TSU-Pr1 human prostate cancer cells. Description: SRB cytotoxicity assay, TSU-Pr1. On the procedure:
(§6) Dr. Mitchell Steiner at University of Tennessee Health Science Center, kindly provided PPG-1 and TSU-PrI cells.
as §1, §4, §2, §3, §5

Assay [6] has as its system PPC-1 human prostate cancer cells. Description: SRB cytotoxicity assay, PPC-1. The settings on record: read-out: IC50 PPC-1. The procedure:
as §6, §1, §4, §2, §3, §5

The test system of assay [7] is RH7777 rat hepatoma cells. Description: SRB cytotoxicity assay, RH7777 control cell line. As to conditions: read-out: IC50 RH7777. The procedure: as §1, §4, §2, §3, §5
[8] abbreviates: Homo sapiens, MCF7, Example 11 table, 96 h.
Where [9] appears, read: Homo sapiens, LNCaP, Example 11 table, 96 h.
The mark [10] stands for this setting: Homo sapiens, DU-145, Example 11 table, 96 h, read-out: IC50 DU145.
Setting [11] is: Homo sapiens, Example 11 table, 96 h.
The mark [12] stands for this setting: Homo sapiens, TSU-Pr1, Example 11 table, 96 h, read-out: IC50 TSU-Pr1.
Setting [13] is: Homo sapiens, PPC-1, Example 11 table, 96 h.
Setting [14] is: Rattus norvegicus, RH7777, Example 11 table, 96 h.
[15] abbreviates: Homo sapiens, MCF7, Table 8, breast cancer cell line.

Structures are written as SMILES. Where a name gives a salt, the structure may show the parent alone. Read-outs that look alike come from different tables or passages of the source.

The record followed here is patent publication US20060014740A1 (priority 2003, published 2006).

In general, IC50 refers to the concentration that inhibits the measured activity by half. As for `O=C(O)[C@@H]1CSC(c2ccc(F)cc2)N1` (stereo partly shown), the IC50 in assay [1] (setting [8]), in assay [2] (setting [9]), in assay [3] (setting [10]), in assay [4] (setting [11]), in assay [5] (setting [12]) and in assay [6] (setting [13]) was over 100 µM each time. For the same molecule, in assay [7] (setting [14]), the IC50 is over 100 µM.

`CCCCCCCCCCCCC1N[C@H](C(=O)O)CS1` (stereo partly shown): the IC50 in assay [1] (setting [8]) is 16.3 µM; in assay [2] (setting [9]), 16.1 µM; in assay [3] (setting [10]) it was about 20 µM; in assay [4] (setting [11]) it was about 20 µM; in assay [5] (setting [12]), about 20 µM; in assay [6] (setting [13]), 12.6 µM. Moreover, the IC50 in assay [7] (setting [14]) was over 20 µM.

Consider `CCCCCCCCCCCCCCCCCCNC(=O)[C@@H]1CSC(c2ccc(-c3ccccc3)cc2)N1` (mixture of isomers) [Compound 27-HCI, (2RS, 4R)-2-Biphenyl-4-yl-thiazolidine-4-carboxylic acid octadecylamide Hydrochloride], for which the IC50 was over 20 µM in assay [1] (setting [15]); over 20 µM in assay [2] (Homo sapiens, LNCaP, Table 4, 96 h); over 20 µM in assay [3] (Homo sapiens, DU-145, read-out: IC50 DU-145, Table 4, 96 h); over 20 µM in assay [4] (Homo sapiens, Table 4, 96 h); over 20 µM in assay [5] (Homo sapiens, TSU-Pr1, Table 4, 96 h, read-out: IC50 TSU-Pr1); over 20 µM in assay [6] (Homo sapiens, PPC-1, Table 4, 96 h). Besides, in assay [7] (Rattus norvegicus, RH7777, Table 4, control cell line, 96 h), the IC50 was over 20 µM.

Consider `COc1ccc(CCNC(=O)CN2C(=O)CSC2c2ccccc2)c(OC)c1` (stereo not shown) [Compound 78], for which the IC50 in assay [2] (Table 6) is over 100 µM; in assay [3] (read-out: IC50 DU-145, Table 6), over 100 µM; in assay [4] (Table 6), over 100 µM; in assay [5] (Table 6, read-out: IC50 TSU-Pr1) it was over 100 µM; in assay [6] (Table 6), over 100 µM; in assay [7] (Table 6, control cell line) it was over 100 µM.

Take `O=c1[nH]cc(F)c(=O)[nH]1` [5-FU, 5-fluorouracil, reference compound]: the IC50 in assay [2] (Homo sapiens, LNCaP, Example 10 table, 96 h) was 4.9 µM; in assay [2] (Homo sapiens, LNCaP, Table 6), 4.9 µM.

For the molecule `N#Cc1ccc(C2N[C@H](C(=O)O)CS2)cc1` (stereo partly shown), the IC50 in assay [1] (setting [8]), in assay [2] (setting [9]), in assay [3] (setting [10]), in assay [4] (setting [11]), in assay [5] (setting [12]) and in assay [6] (setting [13]) was over 100 µM throughout. In addition, in assay [7] (setting [14]), the IC50 was over 100 µM.

With `O=C(O)[C@@H]1CSC(c2ccc(-c3ccccc3)cc2)N1` (stereo partly shown), the IC50 is over 100 µM in assay [1] (setting [8]); 71 µM in assay [2] (setting [9]); over 100 µM in assay [3] (setting [10]); over 100 µM in assay [4] (setting [11]); about 100 µM in assay [5] (setting [12]); over 100 µM in assay [6] (setting [13]). The concentration for half-maximal inhibition (IC50) in assay [7] (setting [14]) was over 100 µM.

With `CCCCCCCCCCCCCCCCCCNC[C@@H](N)CO` [drawing 52], the IC50 in assay [1] (setting [8]) stood at 2.9 µM; in assay [2] (setting [9]), 3.3 µM.

In the case of `CCCCCCCCCCCCCCCCCCNC(=O)[C@@H]1CSC(c2cccc(O)c2)N1` (mixture of isomers) [Compound 14, (2RS, 4R)-2-(3-Hydroxy-phenyl)-thiazolidine-4-carboxylic add octadecylamide], in assay [7] (Table 3, control cell line, 96 h), the half-maximal inhibitory concentration (IC50) is 31 µM.

For the molecule `CCCCCCCCCCCCCCCCCCCCNCC(CO)NC` (stereo not shown) [S3], the IC50 is 2.9 µM in assay [1] (Example 10 table, 96 h) and 3.3 µM in assay [2] (Example 10 table, 96 h).

In the case of `O=C(O)[C@@H]1CSC(c2cccnc2)N1` (stereo partly shown), the half-inhibitory concentration (IC50) is over 100 µM in assay [1] (setting [8]); over 100 µM in assay [2] (setting [9]); over 100 µM in assay [3] (setting [10]); over 100 µM in assay [4] (setting [11]); about 100 µM in assay [5] (setting [12]); over 100 µM in assay [6] (setting [13]). In addition, in assay [7] (setting [14]), the IC50 was over 100 µM.

Turning to `CCCCCCCCCCCCCCCCCCNC[C@H](CO)NC` [drawing 51], the IC50 in assay [1] (setting [8]), in assay [2] (setting [9]), in assay [3] (setting [10]), in assay [4] (setting [11]), in assay [5] (setting [12]) and in assay [6] (setting [13]) was over 100 µM in each case. Besides, the IC50 in assay [7] (setting [14]) was over 100 µM.

Turning to `CCCCCCCCCCCCCCCCCCNCCN1C(=O)CSC1c1ccccc1` (stereo not shown) [Compound 79, 3-(2-(octadecylamino)ethyl)-2-phenylthiazolidin-4-one], the IC50 is over 20 µM in assay [2] (Homo sapiens, LNCaP, Table 7); 15.8 µM in assay [3] (Homo sapiens, DU-145, read-out: IC50 DU-145, Table 7); over 20 µM in assay [4] (Homo sapiens, Table 7); 6.1 µM in assay [5] (Homo sapiens, TSU-Pr1, Table 7, read-out: IC50 TSU); 12 µM in assay [6] (Homo sapiens, PPC-1, Table 7); over 20 µM in assay [7] (Rattus norvegicus, RH7777, Table 7, control cell line).

Consider `CCCCCCCCCCCCCCCCCCCNC(=O)[C@@H]1CSC(c2ccccc2)N1` (mixture of isomers) [Compound 6-HCI, (2RS, 4R)-2-Phenylthiazolidine-4-carboxylic acid nonadecylamide Hydrochloride], for which the concentration for half-maximal inhibition (IC50) in assay [1] (Table 8, breast cancer cell line) is over 20 µM; in assay [2] (Table 3, 96 h), 13.6 µM; in assay [3] (read-out: IC50 DU-145, Table 3, 96 h), over 20 µM; in assay [5] (Table 3, 96 h, read-out: IC50 TSU-Pr1), over 20 µM; in assay [6] (Table 3, 96 h), 16.8 µM.

Take `CCCCCCCCCCCCCCCCCCNCC(CO)NC` (stereo not shown) [compound 318]: in assay [2] (Table 9, 96 h), the IC50 came out at 3.3 µM.

`CCCCCCCCCCCCCCCCCCNC(=O)[C@@H]1CSC(c2ccc(OC)cc2)N1` (mixture of isomers) [Compound 15-HCI, (2RS, 4R)-2-(4-Methoxy-phenyl)-thiazolidine-4-carboxylic acid octadecylamide Hydrochloride]: the IC50 in assay [1] (setting [15]) is 16.3 µM; in assay [2] (Homo sapiens, LNCaP, Table 3, 96 h), 2.1 µM; in assay [3] (Homo sapiens, DU-145, read-out: IC50 DU-145, Table 3, 96 h), 8.7 µM; in assay [4] (Homo sapiens, Table 3, 96 h), about 20 µM; in assay [6] (Homo sapiens, PPC-1, Table 3, 96 h), 1.5 µM; in assay [7] (Rattus norvegicus, RH7777, Table 3, control cell line, 96 h), over 20 µM.

`CCCCCCCCCCCCCCCCCCNC(=O)[C@@H]1CSC(c2ccc(C#N)cc2)N1` (mixture of isomers) [Compound 22, (2RS, 4R)-2-(4-Cyano-phenyl)-thiazolidine-4-carboxylic acid octadccylamide]: the IC50 in assay [4] (Table 4, 96 h) was over 20 µM; in assay [7] (Table 4, control cell line, 96 h) it was over 20 µM.
